In patent US11098040B2, “Compounds and methods of use” (Ferro Therapeutics, Inc., priority 2018, dated 2021):
Where “and” joins values, the source holds several entries; their conditions need not be identical. Equal values may be shown once.

Tests used:
[1] = tested on: H1299; test: Cell viability assay (CellTiter Glo), lung cancer cell line H1299; assay type: cell-based; conditions: Homo sapiens, NCI-H1299, 96 hours
Procedure, shortened: (§1)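 Seeding density was adjusted per line, and cells grew overnight before treatment with a 3-fold serial dilution (9 points, starting at up to 30 μM) in duplicate; DMSO stayed at 0.25% or below. Luminescence was measured 10 min after CellTiter Glo addition at 96 h.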

[2] = tested on: H2228; test: Cell viability assay (CellTiter Glo), lung cancer cell line H2228; assay type: cell-based; conditions: Homo sapiens, NCI-H2228; lung cancer cell line, 96 hours, CellTiter Glo; read-out: IC50 H2228
Procedure, shortened: as §1

[3] = tested on: MDA-MB-435S; test: Cell viability assay (CellTiter Glo), melanoma cell line MDA-MB-435S; assay type: cell-based; conditions: Homo sapiens, 96 hours
Procedure, shortened: as §1

[4] = tested on: Huh7; test: Cell viability assay (CellTiter Glo), hepatocellular carcinoma Huh7; assay type: cell-based; conditions: Homo sapiens, Huh-7, 96 hours
Procedure, shortened: as §1

[5] = tested on: PANC1; test: Cell viability assay (CellTiter Glo), pancreatic cell line PANC1; assay type: cell-based; conditions: Homo sapiens, PANC-1, 96 hours
Procedure, shortened: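 PANC1 cells seeded overnight at 37 °C, then exposed for 96 h to a 9-point 3-fold dilution series from up to 30 μM, final DMSO ≤0.25%. Viability read by CellTiter Glo luminescence. % inhibition relative to DMSO-only wells, fitted to IC50, relative IC50 or % top inhibition.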

[6] = tested on: MiaPaCa-2; test: Cell viability assay (CellTiter Glo), pancreatic carcinoma MiaPaCa-2; assay type: cell-based; conditions: Homo sapiens, MIA PaCa-2; pancreatic carcinoma, 96 hours, CellTiter Glo; read-out: IC50 MiaPaCa-2
Procedure, shortened: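 MiaPaCa-2 and AsPC-1 cells were seeded overnight at 37 °C and exposed for 96 h to 9-point, 3-fold dilutions from up to 30 μM (final DMSO ≤0.25%). CellTiter Glo luminescence was read, and inhibition was calculated relative to DMSO-only cells. IC50, relative IC50 or % top inhibition was derived.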

[7] = tested on: AsPC-1; test: Cell viability assay (CellTiter Glo), pancreatic adenocarcinoma AsPC-1; assay type: cell-based; conditions: Homo sapiens, ASPC1; pancreatic adenocarcinoma, ascites, 96 hours, CellTiter Glo; read-out: IC50 AsPC-1
Procedure: (§2) Cell viability assay was performed to assess the potency of the compounds in human cancer cell lines KP4 (pancreatic ductal adenocarcinoma), MiaPaCa-2 (pancreatic carcinoma), AsPC-1 (pancreatic adenocarcinoma, ascites), 143B (osteosarcoma), and SJSA-1 (osteosarcoma). Selected compounds were also assayed in a human breast epithelial cell line MCF-10A, a nontumorigenic cell line as a control to assess differential activity. Cells at a density of 500-5,000 cells/well were seeded in 96-well plates and incubated at 37° C. overnight. A series of 9 different concentrations of compound stocks (500×) were created by 3-fold serial dilution in DMSO. These compounds were further diluted in culture media and then added to cells so that the final DMSO concentration was equal to 0.25% or less. After 96 hours of incubation, 50 μL of CellTiter Glo reagent (Promega) was added to each well and luminescence was measured after 10 minutes using EnVision (PerkinElmer). Compounds titrated from top concentration of up to 30 μM. The select compounds were tested initially from 30 μM as the top concentration in duplicates (range of 4.6 nM-30 μM). […] Luminescence from cells treated with DMSO alone was set as Max and % of inhibition was calculated as follows: Inhibition %=(Max-Sample value)/Max*100. Data was analyzed using XL-fit software (ID Business Solutions Ltd.). IC50, relative IC50, or % of top inhibition was calculated.
The results of the assay in the pancreatic cell lines are given in Table 15a for PANC1, Table 15b for MiaPaCa-2, and Table 15c for AsPC-1.

[8] = tested on: MV-4-1; test: Cell viability assay (CellTiter Glo), leukemia cell line MV-4-1; assay type: cell-based; conditions: 96 hours
Procedure, shortened: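 Leukemia cells seeded at 5000–10000/well (suspension) and incubated 96 h with compound, 9-point 3-fold dilution from top concentration up to 30 μM, final DMSO ≤0.25%. Luminescence read by CellTiter-Glo; inhibition relative to DMSO-only Max, giving IC50, relative IC50 or % top inhibition.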

[9] = tested on: HL-60; test: Cell viability assay (CellTiter Glo), leukemia cell line HL-60; assay type: cell-based; conditions: Homo sapiens, 96 hours
Procedure: as §2
(§3) A group of selected analogs were further profiled in cell viability assays described above in multiple additional cancer cell lines, including lung cancer, melanoma, hepatocarcinoma, pancreatic cancer, leukemia, lymphoma, ovarian cancer, breast cancer, colon cancer, and sarcoma cell lines. Initial cell seeding numbers were adjusted for each cell line. Typically, 500-5000 cells/well for adherent cells and 5000-10000/well for suspension cells were seeded in 96-well plates.
(§4) The results of the assay in the leukemia cell lines are given in Table 16a for MV-4-1 and Table 16b for HL-60 and Kasumi-1.

[10] = tested on: Kasumi-1; test: Cell viability assay (CellTiter Glo), leukemia cell line Kasumi-1; assay type: cell-based; conditions: Homo sapiens, 96 hours
Procedure: as §2, §3, §4

[11] = tested on: REC-1; test: Cell viability assay (CellTiter Glo), lymphoma cell line REC-1; assay type: cell-based; conditions: Homo sapiens, Rec1, 96 hours
Procedure, shortened: as §1

[12] = tested on: Raji; test: Cell viability assay (CellTiter Glo), lymphoma cell line Raji; assay type: cell-based; conditions: Homo sapiens, 96 hours
Procedure, shortened: as §1

[13] = tested on: SK-OV-3; test: Cell viability assay (CellTiter Glo), ovarian cancer cell line SK-OV-3; assay type: cell-based; conditions: Homo sapiens, 96 hours
Procedure, shortened: as §1

[14] = tested on: HCC1954; test: Cell viability assay (CellTiter Glo), breast cancer cell line HCC1954; assay type: cell-based; conditions: Homo sapiens, 96 hours
Procedure, shortened: as §1

[15] = tested on: HT29; test: Cell viability assay (CellTiter Glo), colon cancer cell line HT29; assay type: cell-based; conditions: Homo sapiens, HT-29, 96 hours
Procedure, shortened: as §1

[16] = tested on: SW480; test: Cell viability assay (CellTiter Glo), colon cancer cell line SW480; assay type: cell-based; conditions: Homo sapiens, 96 hours
Procedure: as §2, §3

[17] = tested on: HT-1080 luc2; test: Cell viability assay (CellTiter Glo), fibrosarcoma HT-1080 luc2; assay type: cell-based; conditions: Homo sapiens, fibrosarcoma expressing a luciferase gene, 96 hours, CellTiter Glo, read-out: IC50 HT-1080 luc2
Procedure, shortened: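 HT-1080 luc2 fibrosarcoma cells seeded overnight, then exposed 96 h at 37° C to 9-point 3-fold dilutions (top up to 30 μM; DMSO ≤0.25% final). CellTiter Glo luminescence; % inhibition relative to DMSO-only wells, fitted to IC50, relative IC50 or % top inhibition.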

[18] = tested on: 143B; test: Cell viability assay (CellTiter Glo), osteosarcoma 143B; assay type: cell-based; conditions: Homo sapiens, 96 h, osteosarcoma, 96 hours, CellTiter Glo, read-out: IC50 143B
Procedure, shortened: (§5)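 Cells seeded at 500-5,000/well overnight, then 96 h exposure to 9-point 3-fold dilutions from up to 30 μM (4.6 nM-30 μM), final DMSO ≤0.25%. Viability by CellTiter Glo luminescence; inhibition relative to DMSO-only cells, yielding IC50, relative IC50 or % top inhibition.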

[19] = tested on: SJSA-1; test: Cell viability assay (CellTiter Glo), osteosarcoma SJSA-1; assay type: cell-based; conditions: Homo sapiens, 96 hours
Procedure, shortened: as §5

[20] = tested on: MCF-10A; test: Cell viability assay (CellTiter Glo), non-tumorigenic breast epithelial cell line MCF-10A; assay type: cell-based; conditions: Homo sapiens, 96 hours
Procedure, shortened: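 MCF-10A cells (500-5,000/well) treated 96 h at 37° C with 9-point 3-fold dilutions from up to 30 μM, ≤0.25% DMSO, in duplicate. Viability by CellTiter Glo luminescence; % inhibition versus DMSO-only wells gave IC50, relative IC50 or % top inhibition. Paclitaxel positive control.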

[21] = Pharmacokinetic (PK) studies in Balb/C nude mice via intraperitoneal injection; conditions: plasma; for concentration at 0.5 h / concentration at 4 h: Calculated Concentration; for concentration at 0.5 h / concentration at 4 h / Calculated Concentration: IP 15 mg/kg, Balb/C nude mice
Procedure: Test compounds were dissolved either in 20% (w/w) sulfobutylether-β-cyclodextrin (SBECD) pH 3-7 aqueous solution, or 5% DMSO/(30-50%) PEG400/(65-45%) water. Test compound dosing solutions were administered intraperitoneally to Balb/c nude male mice. Blood samples were collected at various time points with EDTA-K2 as anti-coagulant on ice, and centrifuged to obtain plasma samples. The plasma samples were stored at −20° C. until analysis.
Into 10 μL of test compound plasma samples were added 2 μL DMSO then 200 μL of 5 ng/mL internal standard (VTSD) (Terfenadine) in MeOH/acetonitrile. The mixture was vortexed for 1 minute and centrifuged at 4000 rpm for 15 minutes. Calibration standards were prepared by spiking known amount of test compounds into blank plasma samples. The supernatant solution was diluted 5 times with Acetonitrile/H2O (with 0.1% formic acid, 1:1, v/v), and this is the solution for LC-MS/MS analysis. The limit of quantification (LOQ) was 1 ng/mL.
Typical HPLC mobile phases were mobile phase of 5 mM NH4OAc (with 0.05% formic acid); and mobile phase B of acetonitrile (with 0.1% formic acid). The HPLC column was Kinetex C18 (30 mm×3.00 mm). Mass spectrometer was tuned for each compound in the Multiple Reaction Monitoring (MRM) scanning mode and in the electrospray ionization mode. The lower limit of quantification was 1-10 ng.
In this study, K601 (RSL3) was formulated in 5% DMSO/30% PEG 400/65% water at 1.5 mg/mL. The volume of injection via intraperitoneal route was 10 mL/kg for a dose of 15 mg/kg. […] The limit of quantification (LOQ) was 1 ng/mL.
In this study, the compound was formulated in 20% (w/w) sulfobutylether-β-cyclodextrin (SBECD), pH 5 aqueous solution at 1.5 mg/mL. The volume of injection via intraperitoneal route was 10 mL/kg for a dose of 15 mg/kg. The concentration of test compounds in plasma were analyzed by LC-MS with the method described above. The limit of quantification was 1 ng/mL.
It was formulated in 5% DMSO/50% PEG400/45% Water pH adjusted to 4 with HCl as an aqueous solution at 1.0 mg/mL. The volume of injection via intraperitoneal route was 15 mL/kg for a dose of 15 mg/kg. The concentration of test compounds in plasma were analyzed by LC-MS with the method described above. The limit of quantification was 1 ng/mL. […] The limit of quantification was 1 ng/mL.
Compounds 24 and 28 were formulated in 20% (w/w) sulfobutylether-β-cyclodextrin (SBECD) with pH 3 and pH 4, respectively, as an aqueous solution at 1.0 mg/mL. Compound 67 was in 5% DMSO/50% PEG 400/45% water pH 4 (adjusted with 12 N HCl) aqueous solution at 1.0 mg/mL. The injection volume via intraperitoneal route was 10 mL/kg for a dose of 15 mg/kg. The concentration of test compounds in plasma were analyzed by LC-MS with the method described above. The limit of quantification was 1 ng/mL.

[22] = male, Balb/c nude, mouse, ip, 15 mg/kg

COC(=O)c1ccc([C@H]2c3[nH]c4ccccc4c3C[C@H](C(=O)OC)N2C(=O)CCl)cc1 [Example K601, RSL3, reference compound]
IC50 [1]: 35 nM
IC50 [2]: 75 nM
IC50 [3]: 37 nM
IC50 [4]: 242 nM
IC50 [5]: 116 nM
IC50 [6]: 15 nM
IC50 [7]: 105 nM
IC50 [8]: 258 nM
IC50 [9]: 104 nM
IC50 [10]: 203 nM
IC50 [11]: 227 nM
IC50 [12]: 92 nM
IC50 [13]: 142 nM
IC50 [14]: 180 nM
IC50 [15]: 832 nM
IC50 [16]: 619 nM
IC50 [17]: 27 nM
IC50 [18]: 32 nM
IC50 [19]: 67 nM
IC50 [20]: 2950 nM
AUC [21, 22]: 1.28 ng·h/mL
AUC(0-t) [21, 22]: 1.28 ng·h/mL
Cmax [21, 22]: 1.33 ng/mL
Tmax [21, 22]: 1.67 h
concentration at 0.5 h ([21]; male, Balb/c nude, mouse, ip, 15 mg/kg, 0.5 h, individual mice): 1.18 ng/mL
concentration at 4 h ([21]; male, Balb/c nude, mouse, ip, 15 mg/kg, 4 h, individual mice): 1.63 ng/mL
concentration at 0.5 h ([21]; male, Balb/c nude, mouse, ip, 15 mg/kg, Mean, 0.5 h, mean of 3 mice): 0.783 ng/mL
concentration at 4 h ([21]; male, Balb/c nude, mouse, ip, 15 mg/kg, Mean, 4 h, mean of 3 mice): 0.543 ng/mL
Calculated Concentration ([21]; 0.5 h, individual mice, 15 mg/kg): BLOQ (BLOQ = Below limit of quantification (which was 1 ng/mL)) and 1.17 ng/mL
Calculated Concentration ([21]; 1 h, individual mice): BLOQ (BLOQ = Below limit of quantification (which was 1 ng/mL))
Calculated Concentration ([21]; 2 h, individual mice): BLOQ (BLOQ = Below limit of quantification (which was 1 ng/mL))
Calculated Concentration ([21]; 4 h, individual mice, 15 mg/kg): BLOQ (BLOQ = Below limit of quantification (which was 1 ng/mL))
